Test results taken from patent publication US20230190616A1, “COMPOUNDS USEFUL FOR THE TREATMENT AND/OR CARE OF THE SKIN, HAIR, NAILS AND/OR MUCOUS MEMBRANES” (LUBRIZOL ADVANCED MATERIALS, INC., priority 2018, published 2023).

What was measured:
Assay type in all cases: cell-based
[1] = tested on: human neuroblastoma cell line (SH-SY5Y); assay: Inhibition of noradrenaline (NA) release from human neuroblastoma cells, ELISA
Description: Inhibition of noradrenaline release from human neuroblastoma cells.
Release of neurotransmitters by exocytosis in neuromuscular junctions from peripheral neurons to skeletal muscle allows muscle contraction. Face muscles are subject to said contraction and facial muscle contraction is more frequent around eyes, mouth and forehead than elsewhere in the face. With age, continuous release of neurotransmitters into neuromuscular junctions and decrease of elasticity contribute to the increase of facial wrinkles and permanent expression lines. Compounds able to block or decrease exocytosis on neuromuscular junction sites are thus good candidates for the cosmetic treatment of unaesthetic wrinkles. In vitro induction of the neurotransmitter Noradrenaline (NA) release in a human neuroblastoma cell line (SH-SY5Y) is considered a direct and reliable method for exocytosis measurement. The aim of this study is to evaluate the efficacy of the peptides of the invention on the inhibition of neuronal exocytosis by means of measuring the levels of NA release in SH-SY5Y cells by Enzyme-linked Immunosorbent Assay (ELISA).
SH-SY5Y (ECACC) cells are seeded in 12-well plates at a density of 1×10^6 cells/well. After a 6-day culture, medium is removed from wells and cells are treated for 60 minutes with the peptides of the invention dissolved in Hank’s Balanced Salt Solution (HBSS, Life Technologies) at 1 and 2.5 mg/ml. Cells treated with HBSS alone are used as a basal control. To mobilize NA vesicles, supernatants are removed and 100 nM Tetradecanoylphorbol-13-acetate (TPA, Sigma) is dissolved in the presence of test items in HBSS or dissolved in HBSS alone in the case of the basal control. After this, solutions with TPA are removed and NA release is induced by the addition of 10 µM lonomycin (Epica) with 100 nM TPA dissolved in the presence of test items in HBSS or dissolved in HBSS alone in the case of the basal control. Afterwards, the medium in the wells, containing released NA, is collected and centrifuged. Supernatants obtained are used for quantification of NA by ELISA with noradrenalin ELISA kit (IBL International) following manufacturer’s instructions. In brief, direct sandwich ELISA is performed with a plate pre-coated with an anti-NA antibody. The color obtained after substrate addition is directly proportional to the amount of NA present in each condition tested. Absorbance is read in a microplate absorbance reader (Clariostar™, BMG) at 405 nm. The percentage of NA release for each condition is calculated respect to basal control.

[2] = tested on: collagen type I in primary human dermal fibroblasts (HDFn); assay: Type I collagen synthesis on human dermal fibroblasts by ELISA; settings: 0.5 µg/ml; for % Collagen induction: 48 hours
Description: In vitro study of type I collagen synthesis on human dermal fibroblasts by Enzyme-Linked Immunosorbent Assay.
Collagen type I is the principal collagen of skin. This molecule, which is mainly produced by fibroblasts, is responsible for the strength and resiliency of this tissue. For this reason, in vitro quantification of collagen induction by cosmetic products on human dermal fibroblasts provides information about their potential anti-aging effects on the skin. Collagen induction by the peptides of the invention is evaluated with an Enzyme-Linked Immunosorbent Assay (ELISA). The aim of this study is to investigate the ability of a product to induce collagen type I synthesis in primary human dermal fibroblasts isolated from neonatal skin (HDFn).
HDFn (Cascade) are seeded at a density of 5×10^4 in 48-well plates. After 24-hour incubation, fresh medium with scalar dilutions of the test items at 0.5 µg/ml are added. Non-treated cells are used as basal control. The cells are treated for 48 hours. Then, the medium of the wells is collected and transferred into a 96-well plate. A standard calibration curve prepared with calf skin type I collagen (Sigma) is transferred into the plate as well. The plate is left overnight in order to coat type I collagen into its surface. After that, collagen I is detected with an anti-collagen type I antibody (Sigma). The primary antibody is then recognized by a secondary antibody IgG-HRP (molecular probes). 3,3,5,5-tetramethylbenzidine liquid substrate (TMB, Sigma) is added to measure the amount of secondary antibody attached. The color produced by this reaction is measured in a microtiter plate reader (Clariostar™, BMG) and type I collagen concentration is determined using a linear regression of the standard curve.

[3] = tested on: Musclebind like protein 1 (MBNL1) in human skeletal muscle cells (hSkMc); assay: Quantification of Musclebind like protein 1 in human skeletal muscle cells by TR-FRET; settings: for % MBNL1 vs basal level / MBNL1 levels compared to the basal control and to Argireline (in words): 0.5 mg/ml; for % MBNL1 vs basal level: 48 hours
Method: In vitro quantification of Musclebind like protein 1 in human skeletal muscle cells by Time resolved fluorescence resonance energy transfer.
MBNL1 induction by the peptides of the invention is evaluated by a Time resolved fluorescence resonance energy transfer (TR-FRET) assay. The aim of this study is to investigate the capacity of peptide candidates to increase MBNL-1 in human skeletal muscle cells (hSkMc).
hSkMc (Innoprot) are seeded in 12-well plates at a density of 1.5×10^4 cells/well in Skeletal Muscle Cell Growth Medium (Promocell). After 72 hours incubation, medium is removed and replaced with Skeletal Muscle Cell Differentiation Medium (Promocell). 48 hours after beginning cell differentiation, fresh differentiation medium with 0.5 mg/ml of test items is added. Treatment is continued for 48 hours and non-treated cells are used as basal control. After 48 hours of treatment, cell medium is removed and cell lysis buffer is added to wells. Immediately, plates are kept at -80° C. in order to improve protein extraction during the defrosting process. After 72 hours, cells are lysed by shaking the plates in an orbital rotor at room temperature for 45 minutes. Next, cell lysates are collected and assayed to quantify the level of MBNL-1 protein and total protein concentration.
MBNL-1 protein levels measurement is performed with Human MBNL1 Assay Kit (Cisbio) according to the manufacturer’s protocol. Briefly, the kit is used to perform a TR-FRET for MBNL1 quantification. The protein is detected with the antibodies provided in the kit and quantified by a fluorescence measurement. The quantification is carried out by using a microplate reader (ClarioStar™™™, BMG) set to 665 nm and 620 nm.
Total protein concentration of cell lysate is determined by using Pierce BCA Protein Assay Kit (Thermo Scientific) according to manufacturer’s protocol. In brief, after adding Working Reagent to the samples and the standards, the samples are incubated. Afterwards, color change is measured with an absorbance microplate reader (Clariostar™, BMG) at 562 nm. The total protein amount is used to normalize the level of MBNL1 protein concentration obtained by the TR-FRET test in the samples.

[4] = tested on: Musclebind like protein 1 (MBNL1) in human skeletal muscle cells (hSkMc); assay: as above; settings: 1 mg/ml; 48 hours
[5] = hSkMc, normalized to total protein
[6] = 1 mg/ml, SH-SY5Y, respect to basal control, mean of 3 assays
[7] = 2.5 mg/ml, SH-SY5Y, respect to basal control, mean of 3 assays
[8] = HDFn, versus non-treated cells, mean of 5 assays

Row | Substance | % MBNL1 vs basal level [3, 5] | MBNL1 levels compared to the basal control and to Argireline (in words) ([3]; hSkMc) | also measured
1 | ARGIRELINE [Ac—Glu—Glu—Met—Gln—Arg—Arg, reference compound] | – | – | % Released NA ([1]; 1 mg/ml): 79.6%; % Released NA ([1]; 2.5 mg/ml): 63.5%; % Collagen induction [2]: 109.8%; Effect on MBNL1 (in words) [3]: no effect; % MBNL1 vs basal level [3]: 96.6%; % MBNL1 vs basal level [4]: 86.9%
2 | Ac-L-Ala-L-Arg-L-Arg-L-Gln-D-Met-L-Glu-L-Glu-L-Ala-NH2 [PEP-42] | 144.4% | increase MBNL1 levels | –
3 | H-L-Arg-L-Arg-L-Gln-D-Met-L-Glu-L-Glu-NH2 [PEP-27] | 144.2% | increase MBNL1 levels | –
4 | Ac-L-Arg-L-Arg-D-Gln-D-Met-L-Glu-L-Glu-NH2 [PEP-24] | 120.9% | increase MBNL1 levels | % Released NA [1, 6]: 65.8%; % Released NA [1, 7]: 52.3%; % Collagen induction [2, 8]: 104.7%
5 | Ac-L-Arg-L-Arg-L-Gln-D-Met-L-Glu-NH2 [PEP-44] | 137.8% | increase MBNL1 levels | –
6 | Ac-L-Arg-L-Arg-L-Gln-D-Met-L-Glu-L-Gln-NH2 [PEP-31] | 161.3% | increase MBNL1 levels | –
7 | Ac-L-Lys-L-Arg-L-Gln-D-Met-L-Glu-L-Glu-NH2 [PEP-36] | 117.6% | increase MBNL1 levels | –
8 | Ac-L-Arg-L-Arg-L-Gln-D-Leu-L-Glu-L-Glu-NH2 [PEP-37] | 140.3% | increase MBNL1 levels | –
9 | Ac-L-Arg-L-Arg-L-Gln-L-Met-L-Glu-L-Glu-NH2 [PEP-21] | 91.9% | – | % Released NA [1, 6]: 78.9%; % Released NA [1, 7]: 43.8%; % Collagen induction [2, 8]: 119.3%; Efficacy in increasing collagen type I compared with Argireline (in words) ([2]; HDFn): even higher
10 | Ac-L-Arg-L-Arg-L-Gln-D-Met-L-Glu-L-Glu-OH [PEP-26] | 109.6% | increase MBNL1 levels | –
11 | Ac-L-Arg-L-Lys-L-Gln-D-Met-L-Glu-L-Glu-NH2 [PEP-35] | 144.3% | increase MBNL1 levels | –
12 | Ac-L-Arg-L-Arg-L-Asp-D-Met-L-Glu-L-Glu-NH2 [PEP-41] | 151.3% | increase MBNL1 levels | –
13 | Ac-L-Arg-L-Gln-D-Met-L-Glu-L-Glu-NH2 [PEP-43] | 112.4% | increase MBNL1 levels | –
14 | Ac-L-Arg-L-Arg-L-Gln-D-Met-L-Asp-L-Glu-NH2 [PEP-30] | 160.0% | increase MBNL1 levels | –
